PMC5393604, “The fungal natural product azaphilone-9 binds to HuR and inhibits HuR-RNA interaction in vitro” (PLoS ONE, 2017)
Values joined by “and” are separate entries in the source; they are usually repeats but may differ in a detail not shown here. Identical values can stand only once.

How the values were obtained:
[1] = molecular target: T1, HuR-ARE^c-fos interaction (full length HuR) (Homo sapiens, UniProt Q15717); experiment: FP competition assay, HuR-ARE^c-fos binding; assay type: biochemical; settings: 10 nM full length HuR, 2 nM fluorescein-labeled ARE^c-fos; n = 3; read-out: IC50, disruption of HuR-ARE^c-fos binding
T1 construct: full length HuR (326 residues); made in house; host or cells: E. coli BL21 (DE3)
T1 sequence (Q15717 whole entry): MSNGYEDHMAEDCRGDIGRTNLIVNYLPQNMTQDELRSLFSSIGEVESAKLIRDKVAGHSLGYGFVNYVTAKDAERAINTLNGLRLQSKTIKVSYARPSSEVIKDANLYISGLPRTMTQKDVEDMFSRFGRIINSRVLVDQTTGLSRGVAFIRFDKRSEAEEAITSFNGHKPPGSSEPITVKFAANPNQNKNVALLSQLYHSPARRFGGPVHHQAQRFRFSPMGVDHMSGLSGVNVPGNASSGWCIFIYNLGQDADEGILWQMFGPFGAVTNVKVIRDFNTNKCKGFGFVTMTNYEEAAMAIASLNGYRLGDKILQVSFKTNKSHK
Method: (§1) Synthetic RNA oligos were from Dharmacon. For FP assay, fluorescein-tagged ARE^Msi1 oligo derived from the 3’-UTR of Musashi RNA-binding protein 1 (Msi1) with the sequence 5’-GCUUUUAUUUAUUUUG-3’ and 11-mer ARE^c-fos RNA oligo (5’-AUUUUUAUUUU-3’) identical to the c-fos RNA sequence used in the crystal structure of HuR-RNA complex were used. For NMR studies, unmodified 11-mer ARE^c-fos RNA oligo [8] was used. Prior to the addition of RNA to the protein, the RNA was heated at 95°C for 5 min followed by immediate cooling on ice for 5 min. The azaphilone derivatives used herein were obtained by semisynthetic diversification of asperbenzaldehyde, which was purified from a strain of Aspergillus nidulans that was engineered to overproduce this compound as described elsewhere. Compounds were dissolved in dimethyl sulfoxide (DMSO) to form 10 mM stock solutions; for NMR studies, deuterated dimethyl sulfoxide (d6-DMSO) was used.
(§2) FP competition assay for screening and hit validation were carried out as reported previously. […] Measurements were taken using a BioTek Synergy H4 hybrid plate reader (Biotek, Winooski, VT) after incubating for 2 hours at room temperature. […] Percent inhibition was calculated by comparing to the DMSO (0% inhibition) and labeled free RNA only (100% inhibition) controls. […]

HuR RRM1/2 [2] = molecular target: T2, HuR RRM1/2 (Homo sapiens, UniProt Q15717); experiment: NMR titration of 15N/ILV-labeled HuR RRM1/2; assay type: binding; settings: equimolar concentration (1:1), 50 μM 15N HuR RRM1/2
T2 construct: HuR RRM1/2 (residues 18–186); made in house; host or cells: E. coli BL21 (DE3)
T2 sequence (Q15717 18-186): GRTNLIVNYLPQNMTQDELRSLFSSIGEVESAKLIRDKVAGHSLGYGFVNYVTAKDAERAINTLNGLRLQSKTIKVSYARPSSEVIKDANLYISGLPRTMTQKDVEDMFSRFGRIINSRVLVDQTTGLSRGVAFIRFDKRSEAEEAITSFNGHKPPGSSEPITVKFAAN
Method: Proteins for NMR were dissolved in NMR buffer (100 mM NaCl, 10 mM NaPO4 pH 6.8, 10% D2O). ^15N NMR data were acquired using Bruker Avance 800 MHz spectrometer with a TCI cryoprobe. ILV ^13C NMR data were acquired using on a Bruker Avance III 600 MHz spectrometer. NMR data were acquired at 25°C, processed using NMRPipe and analyzed using NMRView. For ^15N and ILV chemical shift mapping, 80 μM ^15N/ILV-labeled HuR RRM1/2 was titrated with unlabeled ARE^c-fos RNA at increasing molar ratios of 1:0, 1:0.5, 1:1, and 1:1.7. AZA-9 was titrated at 1:1 and 1:2 molar ratios into 50 μM ^15N/ ILV-labeled HuR RRM1/2 in NMR buffer with 10% d6-DMSO. […] The ^15N titrations were monitored by acquiring 2D ^1H-^15N TROSY spectra, and the ILV titrations were monitored by acquiring 2D ^1H-^13C HSQC spectra. The published backbone amide assignments of HuR RRM1/2 (BMRB entry 26628) and the ILV assignments made herein were used in the NMR analysis.
The interaction of AZA-9 with HuR RRM1/2 was characterized by NMR methods. […] Specifically, residue R97 in the inter-domain linker region (whose intensity reduced by ~50% at equimolar concentration of AZA-9, Fig 4C) has been previously reported as important for RNA binding, RNA recognition and high affinity HuR-RNA complex formation. […]

HuR = molecular target: T3, HuR (Homo sapiens, UniProt Q15717); experiment: Surface plasmon resonance, direct binding to immobilized HuR; settings: injected at 0–125 μM, 20°C; n = 2
T3 construct: made in house; host or cells: E. coli BL21 (DE3)
T3 sequence (Q15717 whole entry): as the sequence (Q15717 whole entry) above
Method: Surface plasmon resonance (SPR) datasets were acquired using a BIACORE 3000 (GE Healthcare) at 20°C as described. Briefly, HuR was immobilized into a CM5 chip by amine-coupling chemistry and AZA-9 dissolved in buffer (20 mM HEPES pH 7.4, 150 mM NaCl, 3 mM EDTA, 0.05% p20 (v/v), 5% DMSO (v/v)) was injected into the flow cell at a flow rate of 60 μL/min. The mixtures complexes were allowed to associate for 400 sec and dissociate for 160 sec. SPR sensorgrams were generated using Scrubber2 (BioLogic Software, Australia).
Fig 1 AZA-9 inhibits HuR-ARE RNA interaction and binds directly to HuR. Titration of 2 nM ARE^c-fos and control RNA (a 16-nt fluorescein-labeled RNA oligo with random sequence) with (A) HuR and (B) HuR RRM1/2 (n = 3). (C) Dose-response curve of AZA-9 disrupting HuR-ARE^c-fos binding in FP assay using 10 nM HuR and 2 nM fluorescein-labeled ARE^c-fos (n = 3). (D) Dose-response curve of AZA-9 disrupting HuR RRM1/2-ARE^c-fos binding in FP assay using 50 nM HuR RRM1/2 and 2 nM fluorescein-labeled ARE^c-fos (n = 3). (E) SPR sensorgrams of AZA-9 injected at increasing concentrations of 0–125 μM into a flow cell containing immobilized HuR (n = 2). Structure of AZA-9 is shown on the right. The following were the negative controls used–random RNA in (A) and (B); and AZA-15 in (C) and (D). […]

Musashi-1 (Msi1) = Musashi-1 (Msi1) (Homo sapiens, UniProt O43347); experiment: Binding to Musashi-1 (unpublished data); settings: authors' unpublished data
Sequence of Musashi-1 (Msi1) (O43347 whole entry, species assumed): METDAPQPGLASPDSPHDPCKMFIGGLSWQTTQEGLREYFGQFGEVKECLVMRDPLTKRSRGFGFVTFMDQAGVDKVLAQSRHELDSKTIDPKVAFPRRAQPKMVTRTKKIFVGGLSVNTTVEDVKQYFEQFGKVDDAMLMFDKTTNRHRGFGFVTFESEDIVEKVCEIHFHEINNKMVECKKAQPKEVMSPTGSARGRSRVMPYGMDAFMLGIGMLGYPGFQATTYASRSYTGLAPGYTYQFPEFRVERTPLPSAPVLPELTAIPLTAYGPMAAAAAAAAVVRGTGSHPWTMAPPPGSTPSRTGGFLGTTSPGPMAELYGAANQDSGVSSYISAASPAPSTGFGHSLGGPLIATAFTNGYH

[3] = molecular target: T4, HuR-ARE^Msi1 interaction (full length HuR) (Homo sapiens, UniProt Q15717); experiment: FP competition assay, HuR-ARE^Msi1 binding; assay type: biochemical; settings: 10 nM HuR, 2 nM fluorescein-labeled ARE^Msi1; n = 3; read-out: IC50, inhibition of HuR-ARE^Msi1 interaction
T4 construct: full length HuR (326 residues); made in house; host or cells: E. coli BL21 (DE3)
T4 sequence (Q15717 whole entry): as the sequence (Q15717 whole entry) above
Method: Synthetic RNA oligos were from Dharmacon. For FP assay, fluorescein-tagged ARE^Msi1 oligo derived from the 3’-UTR of Musashi RNA-binding protein 1 (Msi1) with the sequence 5’-GCUUUUAUUUAUUUUG-3’ and 11-mer ARE^c-fos RNA oligo (5’-AUUUUUAUUUU-3’) identical to the c-fos RNA sequence used in the crystal structure of HuR-RNA complex were used. For NMR studies, unmodified 11-mer ARE^c-fos RNA oligo [8] was used. Prior to the addition of RNA to the protein, the RNA was heated at 95°C for 5 min followed by immediate cooling on ice for 5 min. […]
FP competition assay for screening and hit validation were carried out as reported previously. […] Measurements were taken using a BioTek Synergy H4 hybrid plate reader (Biotek, Winooski, VT) after incubating for 2 hours at room temperature. […] Percent inhibition was calculated by comparing to the DMSO (0% inhibition) and labeled free RNA only (100% inhibition) controls.
A FP-based high throughput screen on HuR and a 16-mer ARE^Msi1 RNA oligomer from the 3’-UTR of Musashi1 (Msi1) mRNA previously identified novel small molecule inhibitors of HuR-ARE interaction. […] Multi-dose effect was determined to verify the inhibition of HuR-ARE interaction. […]

[4] = molecular target: T5, HuR RRM1/2-ARE^c-fos interaction (Homo sapiens, UniProt Q15717); experiment: FP competition assay, HuR RRM1/2-ARE^c-fos binding; assay type: biochemical; settings: 50 nM HuR RRM1/2, 2 nM fluorescein-labeled ARE^c-fos; n = 3; read-out: IC50, disruption of HuR RRM1/2-ARE^c-fos binding
T5 construct: HuR RRM1/2 (residues 18–186); made in house; host or cells: E. coli BL21 (DE3)
T5 sequence (Q15717 18-186): as the sequence (Q15717 18-186) above
Method: as §1, §2

HuR full length [5] = molecular target: T6, HuR full length (UniProt Q15717 1-326); experiment: fluorescence polarization; 10 nM HuR, 2 nM RNA; complex disrupted by AZA-9 (compound IC50 1.1 uM); FP: room temperature, 2 h incubation in the competition assay, buffer not given (as in cited ref 22); NMR: 100 mM NaCl, 10 mM sodium phosphate pH 6.8, 10% D2O; settings: protein: recombinant; single strand
T6 sequence (Q15717 whole entry): as the sequence (Q15717 whole entry) above

HuR full length [6] = molecular target: T6, HuR full length; experiment: fluorescence polarization; 2 nM RNA; FP: room temperature, 2 h incubation in the competition assay, buffer not given (as in cited ref 22); NMR: 100 mM NaCl, 10 mM sodium phosphate pH 6.8, 10% D2O; settings: protein: recombinant; single strand
HuR RRM1/2 [7] = molecular target: HuR RRM1/2 (UniProt Q15717 18-186); experiment: as above; settings: protein: recombinant; tags: N-terminal His6 (retained); single strand
Sequence of HuR RRM1/2 (UniProt Q15717 18-186) (Q15717 18-186): as the sequence (Q15717 18-186) above

## CC[C@H](C)/C=C(C)/C=C/C1=CC2=C(Br)C(=O)C(C)(OC(C)=O)C(=O)C2=CO1 (stereo partly drawn) [AZA-9, azaphilone-9]
[1]
  IC50: ~1.2 µM and 1.2 µM
HuR RRM1/2 [2]
  reduction of NMR peak intensity of residue R97: ~ 50%
HuR
  SPR optical response on immobilized HuR (in words): increased optical response in a dose-dependent manner
Musashi-1 (Msi1)
  binding to Musashi-1 (in words): also binds
[3]
  IC50: 1.1 µM
[4]
  IC50: 7.4 µM

## GCUUUUAUUUAUUUUG (ssRNA) [AREMsi1 (fluorescein)]
HuR full length [5]
  binding result: binds

## AUUUUUAUUUU (ssRNA) [AREc-fos (fluorescein)]
HuR full length [6]
  Kd: 0.0033 µM
HuR RRM1/2 [7]
  Kd: 0.0222 µM
